Test results reported in patent publication US7390819B2 (Altana Pharma AG, priority 2003, dated 2008).

Target: T1, human inducible NO-synthase (Homo sapiens, UniProt P35228)
T1 construct: host or cells: crude cytosolic fraction
Assay: Measurement of inducible NO-synthase activity ([3H]arginine conversion)
Assay type: biochemical
Conditions: crude cytosolic fraction containing human inducible NO-synthase; 0.1 μM arginine; 45 to 60 min at 37° C.; read-out: Inhibition of INOS activity [measured as −logIC50 (mol/l)] (converted)
Experimental: Measurement of Inducible NO-synthase Activity
The assay is performed in 96-well microliter F-plates (Greiner, Frickenhausen, FRG) in a total volume of 100 μl in the presence of 100 nM calmodulin, 226 μM CaCl2, 477 μM MgCl2, 5 μM flavin-adenine-dinucleotide (FAD), 5 μM flavin mononucleotide (FMN), 0.1 mM NADPH, 7 mM glutathione, 10 μM BH4 and […] pH 7.2. Arginine concentrations are 0.1 μM for enzyme inhibition experiments. 150000 dpm of [^3H]arginine are added to the assay mixture. Enzyme reaction is started by the addition of 4 μg of a crude cytosolic fraction containing human inducible NO-synthase and the reaction mixture is incubated for 45 to 60 min at 37° C. Enzyme reaction is stopped by adding 10 μl of 2M MES-buffer pH 5.0. 50 μl of the incubation mixture are transferred into a MADP N65 filtration microtiter plate (Millipore, Eschborn, FRG) containing already 50 μl of AG-50W-X8 cation exchange resin (Biorad, München, FRG). The resin in the Na loaded form is pre-equilibrated in water and 70 μl (corresponding to 50 μl dry beads) are pipetted under heavy stirring with a 8 channel pipette into the filtration plate. After pipetting 50 μl of the enzyme reaction mixture onto the filtration plates, the plates are placed on a filtration manifold (Porvair, Shepperton, UK) and the flow through is collected in Pico scintillation plates (Packard, Meriden, Conn.). The resin in the filtration plates is washed with 75 μl of water (1×50 μl and 1×25 μl) which is also collected in the same plate as the sample. The total flow through of 125 μl is mixed with 175 μl of Microscint-40 scintillation cocktail (Packard) and the scintillation plate is sealed with TopSeal P-foil (Packard). Scintillation plates are counted in a scintillation counter.
For the measurement of inducible NO-synthase-inhibiting potencies of compounds increasing concentrations of inhibitors were included into the incubation mixture. IC50-values were calculated from the percent inhibition at given concentrations by nonlinear least square fitting.
The inhibitory values determined for the compounds according to the invention follow from the following table A, in which the compound numbers correspond to the example numbers.

T1 sequence (P35228 whole entry): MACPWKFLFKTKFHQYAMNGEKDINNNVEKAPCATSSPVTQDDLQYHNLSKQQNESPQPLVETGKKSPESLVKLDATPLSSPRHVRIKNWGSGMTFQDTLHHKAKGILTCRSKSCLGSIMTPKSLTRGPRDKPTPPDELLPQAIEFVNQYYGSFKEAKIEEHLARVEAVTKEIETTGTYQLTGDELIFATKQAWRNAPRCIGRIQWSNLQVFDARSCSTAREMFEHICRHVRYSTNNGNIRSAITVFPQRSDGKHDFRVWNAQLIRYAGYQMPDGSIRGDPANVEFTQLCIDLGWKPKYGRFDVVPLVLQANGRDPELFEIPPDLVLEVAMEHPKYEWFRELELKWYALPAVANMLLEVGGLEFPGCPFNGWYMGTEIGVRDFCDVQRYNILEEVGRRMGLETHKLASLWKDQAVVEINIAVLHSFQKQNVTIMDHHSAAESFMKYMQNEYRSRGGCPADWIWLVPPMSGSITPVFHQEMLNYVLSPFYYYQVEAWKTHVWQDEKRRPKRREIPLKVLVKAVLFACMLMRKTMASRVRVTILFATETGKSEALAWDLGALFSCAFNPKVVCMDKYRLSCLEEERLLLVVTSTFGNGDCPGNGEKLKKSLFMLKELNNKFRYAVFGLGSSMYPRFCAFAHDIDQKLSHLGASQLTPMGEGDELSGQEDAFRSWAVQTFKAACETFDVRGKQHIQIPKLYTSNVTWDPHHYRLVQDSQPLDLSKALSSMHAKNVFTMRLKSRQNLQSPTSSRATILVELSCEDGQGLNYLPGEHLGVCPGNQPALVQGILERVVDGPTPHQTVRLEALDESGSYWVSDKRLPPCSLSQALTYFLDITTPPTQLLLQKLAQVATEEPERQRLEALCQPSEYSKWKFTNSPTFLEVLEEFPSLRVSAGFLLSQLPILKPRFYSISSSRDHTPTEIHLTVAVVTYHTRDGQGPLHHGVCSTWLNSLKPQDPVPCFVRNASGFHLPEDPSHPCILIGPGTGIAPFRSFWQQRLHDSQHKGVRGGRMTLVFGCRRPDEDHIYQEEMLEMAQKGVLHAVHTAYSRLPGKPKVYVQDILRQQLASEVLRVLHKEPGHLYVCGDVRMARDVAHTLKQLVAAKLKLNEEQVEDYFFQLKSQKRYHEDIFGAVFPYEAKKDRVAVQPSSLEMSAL

SMILES | IC50
COc1ccnc(CCc2nc3cc4ccccc4nc3[nH]2)c1 [compound 1, 2-[2-(4-Methoxypyridin-2-yl)ethyl]-3H-imidazo[4,5-b]quinoline] | 89.1 nM
COc1ccnc(CCc2nc3cc4cc(C)ccc4nc3[nH]2)c1 [compound 2, 2-[2-(4-Methoxypyridin-2-yl)ethyl]-7-methyl-3H-imidazo[4,5-b]quinoline] | 117 nM
COc1ccnc(CCc2nc3cc4cccc(C)c4nc3[nH]2)c1 [compound 3, 2-[2-(4-Methoxypyridin-2-yl)ethyl]-5-methyl-3H-imidazo[4,5-b]quinoline] | 135 nM
COc1ccnc(CCc2nc3cc4cc(OC)ccc4nc3[nH]2)c1 [compound 4, 7-Methoxy-2-[2-(4-methoxypyridin-2-yl)ethyl]-3H-imidazo[4,5-b]quinoline] | 102 nM
COc1ccnc(CCc2nc3cc4cc(Br)ccc4nc3[nH]2)c1 [compound 5, 7-Bromo-2-[2-(4-methoxypyridin-2-yl)ethyl]-3H-imidazo[4,5-b]quinoline] | 77.6 nM
COc1ccnc(CCc2nc3cc4cc(-c5ccc(CO)cc5)ccc4nc3[nH]2)c1 [compound 6] | 363 nM
